Data taken from PubChem BioAssay AID270 (DTP/NCI, 2004).
“And” between values parts separate entries of the source, which are not always exact repeats. Equal values may be shown once. Results filed as inconclusive are left out. Where a SMILES comes first, the peptide text is derived from it. [ ]: non-standard residue; d: D form. The star is where a group is joined. ξ: configuration not given here. ξAsp(βξ-Me) = CC(C(=O)O)C(N)C(=O)O; X4 = CC(N*)C1NC(=O)C2CCCCN2C1=O; ξAbu(3ξ-NH2) = CC(N)C(N)C(=O)O; X3 = CCC(C)CCC/C=C/CC(=O)*

System: BDF1 mice, s.c. Lewis lung carcinoma, T/C %
Experiment: NCI In Vivo Anticancer Drug Screen. Data for tumor model Lewis Lung Carcinoma (subcutaneous) in B6D2F1 (BDF1) mice
Details: endpoint: median survival time, higher = longer survival
Procedure, shortened: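 Tumor-bearing mice were treated with test compound, and either survival or tumor size was recorded. Values are the treated-group measurement divided by that of the vehicle-treated control group.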

## O=C(O)CC(NC(=O)CP(=O)(O)O)C(=O)O (stereo not drawn)
dose: 12.5 mg/kg/injection, schedule: Q01DX009 (ip), vehicle: saline
  T/C: 120 % of control and 121 % of control
dose: 17.1 mg/kg/injection, schedule: Q01DX004 (ip), vehicle: saline
  T/C: 120 % of control
dose: 18.8 mg/kg/injection, schedule: Q01DX004 (ip), vehicle: saline
  T/C: 124 % of control
dose: 23.3 mg/kg/injection, schedule: Q01DX009 (ip), vehicle: saline
  T/C: 121 % of control
dose: 25.0 mg/kg/injection, schedule: Q01DX004 (ip), vehicle: saline
  T/C: 226 % of control
dose: 34.1 mg/kg/injection, schedule: Q01DX004 (ip), vehicle: saline
  T/C: 178 % of control
dose: 37.5 mg/kg/injection, schedule: Q01DX004 (ip), vehicle: saline
  T/C: 120 % of control
dose: 38.9 mg/kg/injection, schedule: Q01DX004 (ip), vehicle: saline
  T/C: 123 % of control
dose: 38.9 mg/kg/injection, schedule: Q01DX009 (oral), vehicle: saline
  T/C: 100 % of control
dose: 50.0 mg/kg/injection, schedule: Q01DX004 (ip), vehicle: saline
  T/C: 225 % of control
dose: 50.0 mg/kg/injection, schedule: Q01DX005 (ip), vehicle: saline
  T/C: 95 % of control
dose: 64.0 mg/kg/injection, schedule: Q01DX004 (ip), vehicle: saline
  T/C: 108 % of control
dose: 64.8 mg/kg/injection, schedule: Q01DX004 (ip), vehicle: saline
  T/C: 175 % of control and 197 % of control
dose: 64.8 mg/kg/injection, schedule: Q01DX009 (ip), vehicle: saline
  T/C: 167 % of control
dose: 64.8 mg/kg/injection, schedule: Q01DX009 (oral), vehicle: saline
  T/C: 103 % of control
dose: 68.3 mg/kg/injection, schedule: Q01DX004 (ip), vehicle: saline
  T/C: 247 % of control
dose: 68.3 mg/kg/injection, schedule: Q01DX004 (ip), vehicle: suspension in saline
  T/C: 112 % of control
dose: 70.0 mg/kg/injection, schedule: Q01DX009 (oral), vehicle: saline
  T/C: 122 % of control
dose: 75.0 mg/kg/injection, schedule: Q01DX004 (ip), vehicle: saline
  T/C: 247 % of control
dose: 100.0 mg/kg/injection, schedule: Q01DX004 (ip), vehicle: saline
  T/C: 226 % of control
dose: 108.0 mg/kg/injection, schedule: Q01DX004 (ip), vehicle: saline
  T/C: 197 % of control and 299 % of control
dose: 108.0 mg/kg/injection, schedule: Q01DX009 (ip), vehicle: saline
  T/C: 222 % of control
dose: 108.0 mg/kg/injection, schedule: Q01DX009 (oral), vehicle: saline
  T/C: 107 % of control
dose: 108.0 mg/kg/injection, schedule: Q04DX004 (ip), vehicle: saline
  T/C: 118 % of control
dose: 110.0 mg/kg/injection, schedule: Q01DX009 (oral), vehicle: saline
  T/C: 122 % of control
dose: 116.0 mg/kg/injection, schedule: Q01DX009 (ip), vehicle: saline
  T/C: 181 % of control
dose: 125.0 mg/kg/injection, schedule: Q01DX009 (ip), vehicle: saline
  T/C: 176 % of control and 194 % of control
dose: 133.0 mg/kg/injection, schedule: Q01DX007 (other), vehicle: saline
  T/C: 206 % of control
dose: 133.0 mg/kg/injection, schedule: Q01DX007 (sc), vehicle: saline
  T/C: 206 % of control
dose: 136.0 mg/kg/injection, schedule: Q01DX004 (ip), vehicle: suspension in saline
  T/C: 204 % of control
dose: 136.5 mg/kg/injection, schedule: Q01DX004 (ip), vehicle: saline
  T/C: 248 % of control
dose: 140.0 mg/kg/injection, schedule: Q01DX009 (ip), vehicle: saline
  T/C: 166 % of control
dose: 150.0 mg/kg/injection, schedule: Q01DX004 (ip), vehicle: saline
  T/C: 248 % of control
dose: 150.0 mg/kg/injection, schedule: Q01DX009 (ip), vehicle: saline
  T/C: 186 % of control
dose: 160.0 mg/kg/injection, schedule: Q01DX009 (oral), vehicle: saline
  T/C: 119 % of control
dose: 167.0 mg/kg/injection, schedule: Q01DX010 (ip), vehicle: saline
  T/C: 152 % of control
dose: 175.0 mg/kg/injection, schedule: Q01DX009 (ip), vehicle: saline
  T/C: 163 % of control
dose: 178.0 mg/kg/injection, schedule: Q01DX009 (ip), vehicle: saline
  T/C: 178 % of control and 237 % of control
dose: 180.0 mg/kg/injection, schedule: Q01DX009 (ip), vehicle: saline
  T/C: 159 % of control and 222 % of control
dose: 180.0 mg/kg/injection, schedule: Q01DX009 (oral), vehicle: saline
  T/C: 102 % of control
dose: 180.0 mg/kg/injection, schedule: Q04DX004 (ip), vehicle: saline
  T/C: 178 % of control
dose: 200.0 mg/kg/injection, schedule: Q01DX004 (ip), vehicle: saline
  T/C: 226 % of control
dose: 200.0 mg/kg/injection, schedule: Q01DX005 (ip), vehicle: saline
  T/C: 115 % of control
dose: 200.0 mg/kg/injection, schedule: Q01DX007 (other), vehicle: saline
  T/C: 206 % of control
dose: 200.0 mg/kg/injection, schedule: Q01DX007 (sc), vehicle: saline
  T/C: 206 % of control
dose: 200.0 mg/kg/injection, schedule: Q01DX009 (ip), vehicle: saline
  T/C: 225 % of control
dose: 240.0 mg/kg/injection, schedule: Q04DX003 (ip), vehicle: saline
  T/C: 150 % of control
dose: 250.0 mg/kg/injection, schedule: Q01DX010 (ip), vehicle: saline
  T/C: 158 % of control
dose: 265.0 mg/kg/injection, schedule: Q01DX009 (ip), vehicle: saline
  T/C: 195 % of control
dose: 273.0 mg/kg/injection, schedule: Q01DX004 (ip), vehicle: saline
  T/C: 195 % of control
dose: 273.0 mg/kg/injection, schedule: Q01DX004 (ip), vehicle: suspension in saline
  T/C: 177 % of control
dose: 300.0 mg/kg/injection, schedule: Q01DX007 (sc), vehicle: saline
  T/C: 198 % of control
dose: 300.0 mg/kg/injection, schedule: Q04DX004 (ip), vehicle: saline
  T/C: 169 % of control
dose: 343.0 mg/kg/injection, schedule: Q04DX003 (ip), vehicle: saline
  T/C: 153 % of control and 186 % of control (2×)
dose: 375.0 mg/kg/injection, schedule: Q01DX010 (ip), vehicle: saline
  T/C: 95 % of control
dose: 400.0 mg/kg/injection, schedule: Q01DX004 (ip), vehicle: saline
  T/C: 224 % of control
dose: 490.0 mg/kg/injection, schedule: Q04DX003 (ip), vehicle: saline
  T/C: 150 % of control and 186 % of control and 193 % of control
dose: 500.0 mg/kg/injection, schedule: Q04DX004 (ip), vehicle: saline
  T/C: 176 % of control
dose: 833.0 mg/kg/injection, schedule: Q04DX004 (ip), vehicle: saline
  T/C: 64 % of control
dose: 50.0 ml/mouse/injection, schedule: Q01DX005 (ip), vehicle: saline
  T/C: 94 % of control
dose: 200.0 ml/mouse/injection, schedule: Q01DX005 (ip), vehicle: saline
  T/C: 117 % of control

## CCC(C)CCC/C=C/CC(=O)NC(CC(=O)O)C(=O)NC(C(=O)NC(CC(=O)O)C(=O)NCC(=O)NC(CC(=O)O)C(=O)NCC(=O)NC(C(=O)NC(C(=O)N1CCCC1C(=O)NC(C)C1NC(=O)C2CCCCN2C1=O)C(C)C)C(C)N)C(C)C(=O)O (stereo not drawn) (X3-D[ξAsp(βξ-Me)]DGDG[ξAbu(3ξ-NH2)]VP-X4; configuration not given here)
dose: 100.0 mg/kg/injection, schedule: Q01DX009 (ip), vehicle: saline + alcohol
  T/C: 124 % of control
dose: 200.0 mg/kg/injection, schedule: Q01DX009 (ip), vehicle: saline + alcohol
  T/C: 99 % of control

## O=C(NP(=O)(N1CC1)N1CC1)c1cc(I)ccc1I
dose: 1.0 mg/kg/injection, schedule: Q02DX009 (ip), vehicle: saline with Tween-80
  T/C: 110 % of control
dose: 2.0 mg/kg/injection, schedule: Q02DX009 (ip), vehicle: saline with Tween-80
  T/C: 112 % of control
dose: 4.0 mg/kg/injection, schedule: Q02DX009 (ip), vehicle: saline with Tween-80
  T/C: 117 % of control
dose: 8.0 mg/kg/injection, schedule: Q02DX009 (ip), vehicle: saline with Tween-80
  T/C: 117 % of control
dose: 16.0 mg/kg/injection, schedule: Q02DX009 (ip), vehicle: saline with Tween-80
  T/C: 106 % of control
dose: 32.0 mg/kg/injection, schedule: Q02DX009 (ip), vehicle: saline with Tween-80
  T/C: 102 % of control
dose: 64.0 mg/kg/injection, schedule: Q02DX009 (ip), vehicle: saline with Tween-80
  T/C: 98 % of control

## CCOC(=O)C(CC(C)C)NC(=O)C(Cc1ccc(N(CCCl)CCCl)cc1)NC(C)=O (stereo not drawn)
dose: 1.0 mg/kg/injection, schedule: Q01DX009 (ip), vehicle: saline with Tween-80
  T/C: 88 % of control
dose: 2.0 mg/kg/injection, schedule: Q01DX009 (ip), vehicle: saline with Tween-80
  T/C: 95 % of control
dose: 4.0 mg/kg/injection, schedule: Q01DX009 (ip), vehicle: saline with Tween-80
  T/C: 111 % of control
dose: 8.0 mg/kg/injection, schedule: Q01DX009 (ip), vehicle: saline with Tween-80
  T/C: 108 % of control
dose: 16.0 mg/kg/injection, schedule: Q01DX009 (ip), vehicle: saline with Tween-80
  T/C: 116 % of control

## OCC1OC(n2cnc3c2NC=NC[C@H]3O)CC1O (stereo partly drawn)
dose: 0.05 mg/kg/injection, schedule: Q03HX024 (ip), vehicle: saline
  T/C: 110 % of control
dose: 0.1 mg/kg/injection, schedule: Q03HX024 (ip), vehicle: saline
  T/C: 86 % of control
dose: 0.4 mg/kg/injection, schedule: Q03HX024 (ip), vehicle: saline
  T/C: 90 % of control
